Data as given in article PMC10882719 (Frontiers in Neuroscience, 2024).
Read-outs that look alike come from different tables or passages of the source.

Legend:
Type in all cases: cell-based
168 GPCRs [1] = molecular target: T1, 168 GPCRs (Homo sapiens, UniProt P49190); settings: PTHR2
T1 construct: host or cells: PathHunter cell lines

168 GPCRs [2] = molecular target: T2, 168 GPCRs (Homo sapiens, UniProt P51686)
T2 construct: host or cells: PathHunter cell lines
T2 sequence (P51686 1-369): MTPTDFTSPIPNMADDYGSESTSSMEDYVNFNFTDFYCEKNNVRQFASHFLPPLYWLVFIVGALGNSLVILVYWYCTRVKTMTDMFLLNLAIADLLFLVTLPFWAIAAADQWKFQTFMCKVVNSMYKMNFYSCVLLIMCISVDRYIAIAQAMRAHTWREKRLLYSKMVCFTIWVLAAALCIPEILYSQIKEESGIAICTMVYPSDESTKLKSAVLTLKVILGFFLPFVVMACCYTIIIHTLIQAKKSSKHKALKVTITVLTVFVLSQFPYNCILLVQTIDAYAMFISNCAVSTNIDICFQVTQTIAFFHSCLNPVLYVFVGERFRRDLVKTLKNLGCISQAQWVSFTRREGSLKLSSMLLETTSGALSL

168 GPCRs [3] = molecular target: T3, 168 GPCRs (Homo sapiens, UniProt P35408); settings: PTGER4
T3 construct: host or cells: PathHunter cell lines
T3 sequence (P35408 whole entry): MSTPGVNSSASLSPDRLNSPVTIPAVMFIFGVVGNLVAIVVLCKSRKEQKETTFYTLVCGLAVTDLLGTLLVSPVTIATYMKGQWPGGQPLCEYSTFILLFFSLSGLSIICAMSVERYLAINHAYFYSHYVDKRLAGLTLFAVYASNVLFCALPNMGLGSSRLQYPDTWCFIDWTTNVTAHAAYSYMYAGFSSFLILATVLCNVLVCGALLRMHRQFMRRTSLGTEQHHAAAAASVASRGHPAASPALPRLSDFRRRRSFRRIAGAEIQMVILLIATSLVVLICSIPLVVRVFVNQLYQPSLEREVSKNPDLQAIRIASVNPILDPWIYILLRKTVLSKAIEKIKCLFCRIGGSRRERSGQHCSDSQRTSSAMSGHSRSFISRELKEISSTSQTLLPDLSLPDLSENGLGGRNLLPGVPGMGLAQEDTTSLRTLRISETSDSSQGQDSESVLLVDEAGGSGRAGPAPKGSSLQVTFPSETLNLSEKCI

168 GPCRs [4] = molecular target: T4, 168 GPCRs (Homo sapiens, UniProt P25106)
T4 construct: host or cells: PathHunter cell lines
T4 sequence (P25106 whole entry): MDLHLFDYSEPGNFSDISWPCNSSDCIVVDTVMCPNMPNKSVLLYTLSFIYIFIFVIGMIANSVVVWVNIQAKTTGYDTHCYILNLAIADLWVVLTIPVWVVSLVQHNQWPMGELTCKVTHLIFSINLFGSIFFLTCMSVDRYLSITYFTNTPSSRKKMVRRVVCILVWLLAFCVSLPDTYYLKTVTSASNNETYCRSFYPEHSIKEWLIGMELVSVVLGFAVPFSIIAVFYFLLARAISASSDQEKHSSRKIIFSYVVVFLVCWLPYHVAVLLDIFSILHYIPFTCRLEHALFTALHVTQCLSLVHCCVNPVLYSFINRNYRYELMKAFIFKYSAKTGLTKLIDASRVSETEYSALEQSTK

168 GPCRs [5] = molecular target: T5, 168 GPCRs (Homo sapiens, UniProt P25101); settings: EDNRA
T5 construct: host or cells: PathHunter cell lines
T5 sequence (P25101 21-427): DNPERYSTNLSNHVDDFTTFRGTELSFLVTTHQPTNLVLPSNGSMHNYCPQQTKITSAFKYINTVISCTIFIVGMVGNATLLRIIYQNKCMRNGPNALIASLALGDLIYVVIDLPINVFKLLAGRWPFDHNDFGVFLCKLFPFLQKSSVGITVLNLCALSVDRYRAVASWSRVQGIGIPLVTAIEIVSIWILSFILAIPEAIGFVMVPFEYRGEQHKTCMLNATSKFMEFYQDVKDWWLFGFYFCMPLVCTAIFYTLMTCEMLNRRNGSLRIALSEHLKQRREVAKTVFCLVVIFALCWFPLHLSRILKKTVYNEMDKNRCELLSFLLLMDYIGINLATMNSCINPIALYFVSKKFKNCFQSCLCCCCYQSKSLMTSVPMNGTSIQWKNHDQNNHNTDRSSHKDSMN

168 GPCRs [6] = molecular target: T6, 168 GPCRs (Homo sapiens, UniProt P32302)
T6 construct: host or cells: PathHunter cell lines
T6 sequence (P32302 1-372): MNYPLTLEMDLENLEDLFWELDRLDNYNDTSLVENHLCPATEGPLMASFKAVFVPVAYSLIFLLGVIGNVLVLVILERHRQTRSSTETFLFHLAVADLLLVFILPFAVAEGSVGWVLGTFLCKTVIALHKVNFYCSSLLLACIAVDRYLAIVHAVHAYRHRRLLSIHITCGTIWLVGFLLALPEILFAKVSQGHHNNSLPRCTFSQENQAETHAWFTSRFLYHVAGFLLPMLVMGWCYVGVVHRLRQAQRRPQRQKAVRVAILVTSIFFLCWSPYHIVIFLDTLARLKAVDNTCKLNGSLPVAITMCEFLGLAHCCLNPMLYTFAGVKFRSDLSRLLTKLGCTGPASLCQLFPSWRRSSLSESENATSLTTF

168 GPCRs [7] = molecular target: T7, 168 GPCRs (Homo sapiens, UniProt P47901); settings: AVPR1B
T7 construct: host or cells: PathHunter cell lines
T7 sequence (P47901 1-424): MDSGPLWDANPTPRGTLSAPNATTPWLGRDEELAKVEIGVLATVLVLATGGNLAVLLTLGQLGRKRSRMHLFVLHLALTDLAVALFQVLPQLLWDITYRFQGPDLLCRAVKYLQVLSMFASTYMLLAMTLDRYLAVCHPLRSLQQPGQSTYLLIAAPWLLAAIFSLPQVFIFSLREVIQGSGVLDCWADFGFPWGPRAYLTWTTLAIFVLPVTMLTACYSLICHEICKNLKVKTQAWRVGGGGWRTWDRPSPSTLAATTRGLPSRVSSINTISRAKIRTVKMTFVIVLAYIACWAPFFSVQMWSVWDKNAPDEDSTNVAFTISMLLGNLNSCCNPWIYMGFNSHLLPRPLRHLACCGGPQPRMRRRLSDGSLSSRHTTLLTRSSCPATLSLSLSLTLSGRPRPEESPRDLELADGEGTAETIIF

T1 sequence (P49190 25-550): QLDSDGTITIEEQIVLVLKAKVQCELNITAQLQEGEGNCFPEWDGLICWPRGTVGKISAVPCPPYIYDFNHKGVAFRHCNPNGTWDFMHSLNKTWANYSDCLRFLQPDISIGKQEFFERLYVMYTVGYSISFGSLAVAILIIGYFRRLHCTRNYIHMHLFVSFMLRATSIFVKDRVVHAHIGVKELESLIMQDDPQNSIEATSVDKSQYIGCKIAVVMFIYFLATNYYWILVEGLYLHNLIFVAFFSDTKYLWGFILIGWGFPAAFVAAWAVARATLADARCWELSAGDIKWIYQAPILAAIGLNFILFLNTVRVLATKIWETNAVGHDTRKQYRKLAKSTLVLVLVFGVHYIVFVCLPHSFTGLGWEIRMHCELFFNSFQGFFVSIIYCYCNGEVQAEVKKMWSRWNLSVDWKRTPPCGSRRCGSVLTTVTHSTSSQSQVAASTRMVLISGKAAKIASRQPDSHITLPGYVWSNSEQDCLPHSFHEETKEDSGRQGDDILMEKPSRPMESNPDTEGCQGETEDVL

For `CNC(C)C(=O)c1ccc2c(c1)OCO2` (centres unmarked) [methylone], the “% Agonist Activity” value (168 GPCRs [1]; Conc 1 uM) was -0.6%, the “% Antagonist Activity” value (168 GPCRs [1]; Conc 1 uM) was -1% and the “% Agonist Activity” value (168 GPCRs [1]; Conc 10 uM) was -0.5%. For the same molecule, the “% Antagonist Activity” value (168 GPCRs [1]; Conc 10 uM) was -0.2%, the “% Agonist Activity” value (168 GPCRs [2]; CCR9, 1 uM) was -0.5% and the “% Antagonist Activity” value (168 GPCRs [2]; CCR9, 1 uM) was 2.9%. The “% Agonist Activity” value (168 GPCRs [2]; CCR9, 10 uM) was 0.2%, the “% Antagonist Activity” value (168 GPCRs [2]; CCR9, 10 uM) was -9.9% and the “% Agonist Activity” value (168 GPCRs [3]; Conc 1 uM) was -2.8%. The “% Antagonist Activity” value (168 GPCRs [3]; Conc 1 uM) was 10.1%, the “% Agonist Activity” value (168 GPCRs [3]; Conc 10 uM) was -1.4% and the “% Antagonist Activity” value (168 GPCRs [3]; Conc 10 uM) was 4.3%. For the same molecule, the “% Agonist Activity” value (168 GPCRs [4]; CXCR7, 1 uM) was -1.3%, the “% Antagonist Activity” value (168 GPCRs [4]; CXCR7, 1 uM) was 14.1% and the “% Agonist Activity” value (168 GPCRs [4]; CXCR7, 10 uM) was -0.8%. For the same molecule, the “% Antagonist Activity” value (168 GPCRs [4]; CXCR7, 10 uM) was 7.3%, the “% Agonist Activity” value (168 GPCRs [5]; 1 uM) was 0.3% and the “% Antagonist Activity” value (168 GPCRs [5]; 1 uM) was -2.4%. For the same molecule, the “% Agonist Activity” value (168 GPCRs [5]; 10 uM) was 1.4%, the “% Antagonist Activity” value (168 GPCRs [5]; 10 uM) was -11.3% and the “% Agonist Activity” value (168 GPCRs [6]; CXCR5, 1 uM) was 2.5%. For the same molecule, the “% Antagonist Activity” value (168 GPCRs [6]; CXCR5, 1 uM) was -4.3%, the “% Agonist Activity” value (168 GPCRs [6]; CXCR5, 10 uM) was 1.4% and the “% Antagonist Activity” value (168 GPCRs [6]; CXCR5, 10 uM) was -15.1%. For the same molecule, the “% Agonist Activity” value (168 GPCRs [7]; 1 uM) was -1.2%, the “% Antagonist Activity” value (168 GPCRs [7]; 1 uM) was 9.8% and the “% Agonist Activity” value (168 GPCRs [7]; 10 uM) was -1.1%. For the same molecule, the “% Antagonist Activity” value (168 GPCRs [7]; 10 uM) was 3.5%.
For `CNC(C)Cc1ccc2c(c1)OCO2` (centres unmarked) [MDMA, 3,4-Methylenedioxy methamphetamine, reference compound], the “% Agonist Activity” value (168 GPCRs [1]; Conc 1 uM) was 0.2%, the “% Antagonist Activity” value (168 GPCRs [1]; Conc 1 uM) was 2.9% and the “% Agonist Activity” value (168 GPCRs [1]; Conc 10 uM) was 0.5%. The “% Antagonist Activity” value (168 GPCRs [1]; Conc 10 uM) was 7%, the “% Agonist Activity” value (168 GPCRs [2]; CCR9, 1 uM) was 0.1% and the “% Antagonist Activity” value (168 GPCRs [2]; CCR9, 1 uM) was 5.3%. The “% Agonist Activity” value (168 GPCRs [2]; CCR9, 10 uM) was 0.2%, the “% Antagonist Activity” value (168 GPCRs [2]; CCR9, 10 uM) was 14.5% and the “% Agonist Activity” value (168 GPCRs [3]; Conc 1 uM) was 11.1%. The “% Antagonist Activity” value (168 GPCRs [3]; Conc 1 uM) was 7.2%, the “% Agonist Activity” value (168 GPCRs [3]; Conc 10 uM) was 7.8% and the “% Antagonist Activity” value (168 GPCRs [3]; Conc 10 uM) was 11.7%. The “% Agonist Activity” value (168 GPCRs [4]; CXCR7, 1 uM) was -1.3%, the “% Antagonist Activity” value (168 GPCRs [4]; CXCR7, 1 uM) was 5.3% and the “% Agonist Activity” value (168 GPCRs [4]; CXCR7, 10 uM) was 0.5%. For the same molecule, the “% Antagonist Activity” value (168 GPCRs [4]; CXCR7, 10 uM) was 8%, the “% Agonist Activity” value (168 GPCRs [5]; 1 uM) was -1.1% and the “% Antagonist Activity” value (168 GPCRs [5]; 1 uM) was 2.5%. The “% Agonist Activity” value (168 GPCRs [5]; 10 uM) was -1.9%, the “% Antagonist Activity” value (168 GPCRs [5]; 10 uM) was 4.6% and the “% Agonist Activity” value (168 GPCRs [6]; CXCR5, 1 uM) was 2.7%. The “% Antagonist Activity” value (168 GPCRs [6]; CXCR5, 1 uM) was -4.4%, the “% Agonist Activity” value (168 GPCRs [6]; CXCR5, 10 uM) was 1.4% and the “% Antagonist Activity” value (168 GPCRs [6]; CXCR5, 10 uM) was 3.2%. For the same molecule, the “% Agonist Activity” value (168 GPCRs [7]; 1 uM) was -1%, the “% Antagonist Activity” value (168 GPCRs [7]; 1 uM) was 8.1% and the “% Agonist Activity” value (168 GPCRs [7]; 10 uM) was -1.8%. The “% Antagonist Activity” value (168 GPCRs [7]; 10 uM) was 0.8%.
